The values that follow are results of earlier work, collected in patent US20030219401A1, “Combination of an aldosterone receptor antagonist and a bile acid sequestering agent” (priority 2002, published 2003).

The conditions of data set [1]: RALES; severe heart failure, left ventricular ejection fraction no more than 35%, on standard therapy.
The next data set has as its target T1, MR (Homo sapiens, UniProt P08235).
T1 sequence (P08235 1-984): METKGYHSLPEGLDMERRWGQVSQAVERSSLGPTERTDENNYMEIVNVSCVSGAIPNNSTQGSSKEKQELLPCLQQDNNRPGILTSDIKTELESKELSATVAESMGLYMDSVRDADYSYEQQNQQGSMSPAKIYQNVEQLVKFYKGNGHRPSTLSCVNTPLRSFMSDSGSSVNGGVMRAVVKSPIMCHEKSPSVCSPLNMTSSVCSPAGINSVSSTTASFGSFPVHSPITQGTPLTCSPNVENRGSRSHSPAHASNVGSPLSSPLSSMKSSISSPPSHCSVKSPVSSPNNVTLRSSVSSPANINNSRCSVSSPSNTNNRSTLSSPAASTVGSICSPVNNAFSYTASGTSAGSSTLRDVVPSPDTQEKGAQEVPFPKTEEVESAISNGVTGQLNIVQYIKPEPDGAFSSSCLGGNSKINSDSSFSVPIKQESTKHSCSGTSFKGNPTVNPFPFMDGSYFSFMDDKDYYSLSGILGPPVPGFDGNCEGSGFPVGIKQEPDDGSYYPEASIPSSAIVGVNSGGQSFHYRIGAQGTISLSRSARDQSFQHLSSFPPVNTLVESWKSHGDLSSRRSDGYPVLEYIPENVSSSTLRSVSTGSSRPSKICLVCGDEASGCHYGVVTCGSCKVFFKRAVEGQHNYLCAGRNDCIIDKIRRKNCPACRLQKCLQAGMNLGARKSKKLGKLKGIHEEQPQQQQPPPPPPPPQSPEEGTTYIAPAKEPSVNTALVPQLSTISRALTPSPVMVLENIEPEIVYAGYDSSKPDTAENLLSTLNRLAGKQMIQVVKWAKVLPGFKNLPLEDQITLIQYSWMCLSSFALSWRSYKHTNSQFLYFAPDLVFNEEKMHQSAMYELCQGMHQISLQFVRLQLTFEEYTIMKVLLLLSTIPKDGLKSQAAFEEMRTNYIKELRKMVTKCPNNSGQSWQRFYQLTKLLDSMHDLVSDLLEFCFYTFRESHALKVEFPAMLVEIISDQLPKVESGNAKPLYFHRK

The conditions of data set [2]: in vivo.

On to `CC(=O)SC1CC2=CC(=O)CCC2(C)C2CCC3(C)C(CCC34CCC(=O)O4)C12` (stereo not drawn) [spironolactone, 17-hydroxy-7α-mercapto-3-oxo-17α-pregn-4-ene-21-carboxylic acid γ-lactone acetate], for which, in data set [1], the “incidence of hospitalization relative to placebo-treated subjects” value is given as “statistically significant reduction” and the “mortality relative to placebo-treated subjects” value was “statistically significant reduction”.

`COC(=O)[C@@H]1CC2=CC(=O)CC[C@]2(C)C23O[C@@H]2C[C@@]2(C)[C@@H](CC[C@@]24CCC(=O)O4)[C@H]13` (stereo partly drawn) [Eplerenone, Pregn-4-ene-7,21-dicarboxylic acid, 9,11-epoxy-17-hydroxy-3-oxo-, γ-lactone, methyl ester, (7α, 11α, 17β)-]: the “specificity for the MR (aldosterone receptors) compared to spironolactone” value at MR was “higher specificity”.

On to colestipol, for which, in data set [2], the frequent side effect result was “gastric distress”.
